The results in this text go back to patent US20070004660A1, “Synergistic Modulation of Flt3 Kinase Using Alkylquinolines and Alkylquinazolines” (priority 2005, published 2007).

Structures are written as SMILES. Counter-ions that a name gives are not always drawn.

In the test the test system is MV4-11 cells. Put plainly: Inhibition of MV4-11 cell proliferation (CellTiterGlo, 72 h). Conditions: Homo sapiens; 72 h growth inhibition; uncertainty ±20%. It counts as cell-based.
Broadly, the IC50 is the concentration that gives 50% inhibition. `O=C(Nc1ccc(N2CCCC2)cc1)N1CCC(c2ncnc3cc(OCC4CCOCC4)ccc23)CC1` [Compound 188, 4-[7-(Tetrahydro-pyran-4-ylmethoxy)-quinazolin-4-yl]-piperidine-1-carboxylic acid (4-pyrrolidin-1-yl-phenyl)-amide] displayed a half-maximal inhibitory concentration (IC50) of 67 nM. The same measure for `O=C(Nc1ccc(N2CCCC2)cc1)N1CCC(c2ncnc3cc(NCCO)ccc23)CC1` [Example 175, 4-[7-(2-Hydroxy-ethylamino)-quinazolin-4-yl]-piperidine-1-carboxylic acid (4-pyrrolidin-1-yl-phenyl)-amide]: 18 nM. With `O=C(Nc1ccc(N2CCCC2)cc1)N1CCC(c2ncnc3cc(N4CCN(c5ccncc5)CC4)ccc23)CC1` [Compound 194, 4-[7-(4-Pyridin-4-yl-piperazin-1-yl)-quinazolin-4-yl]-piperidine-1-carboxylic acid (4-pyrrolidin-1-yl-phenyl)-amide], half-maximal inhibition (IC50) was put at 0.4 nM. The same measure for `COc1cc2ncnc(C3CCN(C(=O)Nc4ccc(OC(C)C)cc4)CC3)c2cc1OC` [Example 1, 4-(6,7-Dimethoxy-quinazolin-4-yl)-piperidine-1-carboxylic acid (4-isopropoxy-phenyl)-amide hydrochloride]: 88 nM. The same measure for `CC(=O)N1CC(Oc2ccc3c(C4CCN(C(=O)Nc5ccc(N6CCCC6)cc5)CC4)ncnc3c2)C1` [Example 170, 4-[7-(1-Acetyl-azetidin-3-yloxy)-quinazolin-4-yl]-piperidine-1-carboxylic acid (4-pyrrolidin-1-yl-phenyl)-amide]: 97 nM; for `CCN1CCN(c2ccc3c(C4CCN(C(=O)Nc5ccc(N6CCCC6)cc5)CC4)ncnc3c2)CC1` [Compound 187, 4-[7-(4-Ethyl-piperazin-1-yl)-quinazolin-4-yl]-piperidine-1-carboxylic acid (4-pyrrolidin-1-yl-phenyl)-amide]: 21 nM; for `CN(C)[C@@H]1CCN(c2ccc3c(C4CCN(C(=O)Nc5ccc(N6CCCC6)cc5)CC4)ncnc3c2)C1` [Example 149, (R)-4-[7-(3-Dimethylamino-pyrrolidin-1-yl)-quinazolin-4-yl]-piperidine-1-carboxylic acid (4-pyrrolidin-1-yl-phenyl)-amide]: 46 nM. With `CN1CCN(CCCOc2ccc3c(C4CCN(C(=O)Nc5ccc(N6CCCC6)cc5)CC4)ncnc3c2)CC1` [Example 158, 4-{7-[3-(4-Methyl-piperazin-1-yl)-propoxy]-quinazolin-4-yl}-piperidine-1-carboxylic acid (4-pyrrolidin-1-yl-phenyl)-amide] the figure was 11 nM. Compound `O=C(Nc1ccc(N2CCCC2)cc1)N1CCC(c2ncnc3cc(N4CCC(F)CC4)ccc23)CC1` [Compound 195, 4-[7-(4-Fluoro-piperidin-1-yl)-quinazolin-4-yl]-piperidine-1-carboxylic acid (4-pyrrolidin-1-yl-phenyl)-amide] registered an IC50 of 17 nM. Consider `COCCN1CCN(c2ccc3c(C4CCN(C(=O)Nc5ccc(N6CCCC6)cc5)CC4)ncnc3c2)CC1` [Compound 186, 4-{7-[4-(2-Methoxy-ethyl)-piperazin-1-yl]-quinazolin-4-yl}-piperidine-1-carboxylic acid (4-pyrrolidin-1-yl-phenyl)-amide], for which the midpoint of inhibition, the IC50, lay at 15 nM. With `CC(C)c1ccc(NC(=O)CN2CCC(c3ncnc4ccccc34)CC2)cc1` [Example 16, N-(4-Isopropyl-phenyl)-2-(4-quinazolin-4-yl-piperidin-1-yl)-acetamide] the figure was 559 nM. The same measure for `COc1cc2ncnc(C3CCN(C(=O)Nc4ccc(N5CCCCC5)cc4)CC3)c2cc1OC` [Example 19, 4-(6,7-Dimethoxy-quinazolin-4-yl)-piperidine-1-carboxylic acid (4-piperidin-1-yl-phenyl)-amide]: 10 nM.

As to `O=C(Nc1ccc(N2CCCC2)cc1)N1CCC(c2ncnc3cc(N4CCCC4)ccc23)CC1` [Compound 179, 4-(7-Pyrrolidin-1-yl-quinazolin-4-yl)-piperidine-1-carboxylic acid (4-pyrrolidin-1-yl-phenyl)-amide], half-maximal inhibition (IC50) was put at 34 nM.

In the case of `O=C(Nc1ccc(N2CCOCC2)cc1)N1CCC(c2ncnc3cc(N4CCC[C@H]4CO)ccc23)CC1` [Example 139, (S)-4-[7-(2-Hydroxymethyl-pyrrolidin-1-yl)-quinazolin-4-yl]-piperidine-1-carboxylic acid (4-morpholin-4-yl-phenyl)-amide], the concentration for half-maximal inhibition (IC50) is 387 nM.

`CCNC(=O)N1CCN(c2ccc3c(C4CCN(C(=O)Nc5ccc(N6CCCC6)cc5)CC4)ncnc3c2)CC1` [Compound 199, 4-{4-[1-(4-Pyrrolidin-1-yl-phenylcarbamoyl)-piperidin-4-yl]-quinazolin-7-yl}-piperazine-1-carboxylic acid ethylamide] registered an IC50 of 3 nM.

`O=C(Nc1ccc(N2CCOCC2)cc1)N1CCC(c2ncnc3cc(N4CCNC4=O)ccc23)CC1` [Compound 197, 4-[7-(2-Oxo-imidazolidin-1-yl)-quinazolin-4-yl]-piperidine-1-carboxylic acid (4-morpholin-4-yl-phenyl)-amide] registered a concentration for half-maximal inhibition (IC50) of 143 nM. With `CCN(CC)CCCOc1ccc2c(C3CCN(C(=O)Nc4ccc(N5CCOCC5)cc4)CC3)ncnc2c1` [Example 134, 4-[7-(3-Diethylamino-propoxy)-quinazolin-4-yl]-piperidine-1-carboxylic acid (4-morpholin-4-yl-phenyl)-amide] the figure was 43 nM; with `O=C(Nc1ccc(N2CCOCC2)cc1)N1CCC(c2ncnc3cc(N4CCC(F)CC4)ccc23)CC1` [Compound 196, 4-[7-(4-Fluoro-piperidin-1-yl)-quinazolin-4-yl]-piperidine-1-carboxylic acid (4-morpholin-4-yl-phenyl)-amide], 75 nM; with `O=C(Nc1ccc(N2CCCC2)cc1)N1CCC(c2ncnc3cc(Oc4cccnc4)ccc23)CC1` [Example 174, 4-[7-(Pyridin-3-yloxy)-quinazolin-4-yl]-piperidine-1-carboxylic acid (4-pyrrolidin-1-yl-phenyl)-amide], 214 nM. With `O=C(Nc1ccc(N2CCCC2)cc1)N1CCC(c2ncnc3cc(N4CCSCC4)ccc23)CC1` [Compound 182, 4-(7-Thiomorpholin-4-yl-quinazolin-4-yl)-piperidine-1-carboxylic acid (4-pyrrolidin-1-yl-phenyl)-amide] the figure was 107 nM; with `CN1CCCN(c2ccc3c(C4CCN(C(=O)Nc5ccc(N6CCOCC6)cc5)CC4)ncnc3c2)CC1` [Example 138, 4-[7-(4-Methyl-[1,4]diazepan-1-yl)-quinazolin-4-yl]-piperidine-1-carboxylic acid (4-morpholin-4-yl-phenyl)-amide], 220 nM; with `O=C(Nc1ccc(N2CCCC2)cc1)N1CCC(c2ncnc3cc(N4CCN(CCO)CC4)ccc23)CC1` [Compound 185, 4-{7-[4-(2-Hydroxy-ethyl)-piperazin-1-yl]-quinazolin-4-yl}-piperidine-1-carboxylic acid (4-pyrrolidin-1-yl-phenyl)-amide], 6 nM.

Turning to `CNC(=O)C1CCN(c2ccc3c(C4CCN(C(=O)Nc5ccc(N6CCCC6)cc5)CC4)ncnc3c2)CC1` [Example 155, 4-[7-(4-Carboxylic acid methylamide-piperidin-1-yl)-quinazolin-4-yl]-piperidine-1-carboxylic acid (4-pyrrolidin-1-yl-phenyl)-amide], the concentration for half-maximal inhibition (IC50) turned out to be 13 nM.

In turn, `CN1CCN(CCOc2ccc3c(C4CCN(C(=O)Nc5ccc(N6CCOCC6)cc5)CC4)ncnc3c2)CC1` [Example 156, 4-{7-[2-(4-Methyl-piperazin-1-yl)-ethoxy]-quinazolin-4-yl}-piperidine-1-carboxylic acid (4-morpholin-4-yl-phenyl)-amide] registered a half-inhibitory concentration (IC50) of 74 nM. The same measure for `CN1CCN(c2ccc3c(C4CCN(C(=O)Nc5ccc(N6CCCC6)cc5)CC4)ncnc3c2)CC1` [Example 159, 4-[7-(4-Methyl-piperazin-1-yl)-quinazolin-4-yl]-piperidine-1-carboxylic acid (4-pyrrolidin-1-yl-phenyl)-amide]: 6 nM; for `O=C(Nc1ccc(N2CCCC2)cc1)N1CCC(c2ncnc3cc(-n4ccnc4)ccc23)CC1` [Compound 180, 4-(7-Imidazol-1-yl-quinazolin-4-yl)-piperidine-1-carboxylic acid (4-pyrrolidin-1-yl-phenyl)-amide]: 20 nM. In turn, `O=C(Nc1ccc(N2CCOCC2)cc1)N1CCC(c2ncnc3cc(N4CCNCC4)ccc23)CC1` [Example 140, 4-(7-Piperazin-1-yl-quinazolin-4-yl)-piperidine-1-carboxylic acid (4-morpholin-4-yl-phenyl)-amide] registered an IC50 of 170 nM.
